Experimental data as given in paper PMC12040969, “Design, synthesis, in silico studies, and apoptotic antiproliferative activity of novel thiazole-2-acetamide derivatives as tubulin polymerization inhibitors” (Frontiers in Chemistry, 2025).
“And” between values parts separate entries of the source, which are not always exact repeats. Equal entries are not always repeated.

How the values were obtained:
[1] = test system: Caspase-9 in MDAMB-231 cancer cell line; assay: Caspase-9 activation assay; assay type: cell-based, human; conditions: MDAMB-231 cells
Protocol: […]. Compound 10o was the least efficient derivative as caspase-9 activators (0.90 ng/mL).
(§1) […]. Supplementary Appendix A provides more information.

[2] = test system: Bcl-2 in MDAMB-231 cancer cell line; assay: Bcl-2 level assay; assay type: cell-based, human; conditions: MDAMB-231 cells
Excerpt: as §1

[3] = test system: Bax in MDAMB-231 cancer cell line; assay: Bax level assay; assay type: cell-based, human; conditions: MDAMB-231 cells
Excerpt: as §1

[4] = test system: Caspase-3 in MDAMB-231 cancer cell line; assay: Caspase-3 activation assay; assay type: cell-based, human; conditions: MDAMB-231 cells
Excerpt: as §1

[5] = test system: colon - HCT-116; assay: Antiproliferative assay (MTT) HCT-116; conditions: for IC50: read-out: Antiproliferative activity IC50 ± SEM (µM) HCT-116, HCT-116, MTT
[6] = test system: tubulin; assay: Tubulin polymerization inhibition assay (Cytoskeleton kit);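 as to all read-outs here: Cell-free tubulin polymerization read by fluorescent reporter enhancement over a 30 min reaction, with the compound-free kit control taken as 100% activity and inhibition relative to it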; conditions: for Tub %inh / Tub. enzyme inhibition assay %inhibition: 30 min; for Tub %inh: YB-EGY run; for Tub K.Activity: EC = 120, YB-EGY run; for Tub. enzyme inhibition assay %inhibition: codes 522-537 run; for Tub. enzyme inhibition assay K. Activity: control = 120, codes 522-537 run; for IC50: read-out: Tubulin inhibition IC50 ± SEM, triplicate for each tested concentration; for Tub. (IC50) IC50±SD: supplement raw data, lab codes
[7] = test system: prostatic - PC-3; assay: Antiproliferative assay (MTT) PC-3; conditions: for IC50: read-out: Antiproliferative activity IC50 ± SEM (µM) PC-3, PC-3, MTT
[8] = Cell viability assay (MTT), normal cells; assay type: cell-based; conditions: human, MCF-10A normal mammary gland epithelial cells, four-day incubation
[9] = test system: breast - MCF-7; assay: Antiproliferative assay (MTT) MCF-7; conditions: for IC50: read-out: Antiproliferative activity IC50 ± SEM (µM) MCF-7, MCF-7, MTT
[10] = test system: four human cancer cell lines (HCT-116, PC-3, MCF-7, MDAMB-231); assay: Antiproliferative assay, mean of four cell lines (GI50); conditions: for Reduced potency compared to doxorubicin (GI50) / Reduced potency compared to sorafenib (GI50): GI50 ratio; for IC50: Homo sapiens, read-out: GI50 (average IC50)
[11] = test system: - MDAMB-231; assay: Antiproliferative assay (MTT) MDAMB-231
[12] = test system: pancreatic - MDAMB-231; assay: Antiproliferative assay (MTT) MDAMB-231; conditions: read-out: Antiproliferative activity IC50 ± SEM (µM) MDAMB-231; MDAMB-231, MTT

CN[C@@H]1C[C@H]2O[C@@](C)([C@@H]1OC)n1c3ccccc3c3c4c(c5c6ccccc6n2c5c31)C(=O)NC4 [Staurosporine, reference compound]
Caspase-9 Conc [1]: 1.30 ± 0.10 ng/mL | Caspase-9 Fold change ([1]; relative to untreated control): 13 fold | Caspase-9 Conc ([1]; listed as staurosporine): 1.30 ng/mL | Bcl-2 Conc [2]: 1.10 ng/mL | Bcl-2 Fold reduction ([2]; relative to untreated control): 5 fold | Bax Conc [3]: 280 ± 7 pg/mL | Bax Fold change ([3]; relative to untreated control): 35 fold | Bax Conc ([3]; listed as staurosporine): 280 pg/mL | Caspase-3 Conc [4]: 510 ± 4 pg/mL | Caspase-3 Fold change ([4]; relative to untreated control): 8 fold

Cc1nc(SCC(=O)Nc2nc(-c3ccccc3)cs2)sc1C(=O)/C=C/c1ccccc1 [Compound 10a, (E)-2-((5-cinnamoyl-4-methylthiazol-2-yl)thio)-N-(4-phenylthiazol-2-yl)acetamide]
IC50 [5]: 8 ± 0.7 µM | Caspase-9 Conc [1]: 1.60 ng/mL and 1.60 ± 0.10 ng/mL | Bcl-2 Conc [2]: 0.90 ng/mL | Tub %inh ([6]; conc 0.1 (unit not given)): 16.5% | Tub K.Activity ([6]; conc 0.1 (unit not given)): 100.18 | Tub %inh ([6]; conc 1 (unit not given)): 39.4% | Tub K.Activity ([6]; conc 1 (unit not given)): 72.71 | Tub %inh ([6]; conc 10 (unit not given)): 60.5% | Tub K.Activity ([6]; conc 10 (unit not given)): 47.391 | Tub %inh ([6]; conc 50 (unit not given)): 78.9% | Tub K.Activity ([6]; conc 50 (unit not given)): 25.374 | Tub %inh ([6]; conc 100 (unit not given)): 92.7% | Tub K.Activity ([6]; conc 100 (unit not given)): 8.7594 | Bax Conc [3]: 305 pg/mL and 305 ± 8 pg/mL | Higher efficacy than sorafenib, PC-3 ([7]; PC-3 prostate cancer cell line): 1.7 fold | IC50 [7]: 7 ± 0.6 µM | Caspase-3 Conc [4]: 625 ± 5 pg/mL | viability at 96 h, 50 µM [8]: 87% | IC50 [9]: 4 ± 0.2 µM

Cc1ccc(-c2csc(NC(=O)CSc3nc(C)c(C(=O)/C=C/c4ccc(F)cc4)s3)n2)cc1 [Compound 10m, (E)-2-((5-(3-(4-fluorophenyl)acryloyl)-4-methylthiazol-2-yl)thio)-N-(4-(p-tolyl)thiazol-2-yl)acetamide]
Average of Relative viability of cells (%) ([5]; HCT-116, 1.56 µM): 100% | Average of Relative viability of cells (%) ([5]; HCT-116, 3.125 µM): 99.8% | Average of Relative viability of cells (%) ([5]; HCT-116, 6.25 µM): 87.4% | Average of Relative viability of cells (%) ([5]; HCT-116, 12.5 µM): 67.3% | Average of Relative viability of cells (%) ([5]; HCT-116, 25 µM): 54.1% | Average of Relative viability of cells (%) ([5]; HCT-116, 50 µM): 43.7% | Average of Relative viability of cells (%) ([5]; HCT-116, 100 µM): 28.4% | IC50 [5]: 35 ± 2.2 µM | Reduced potency compared to doxorubicin (GI50) [10]: at least 2.5 fold | Reduced potency compared to sorafenib (GI50) [10]: ≥ 1.5 fold | IC50 [10]: 29 µM | Average of Relative viability of cells (%) ([11]; MDAMB-231, 1.56 µM): 100% | Average of Relative viability of cells (%) ([11]; MDAMB-231, 3.125 µM): 87.1% | Average of Relative viability of cells (%) ([11]; MDAMB-231, 6.25 µM): 68.5% | Average of Relative viability of cells (%) ([11]; MDAMB-231, 12.5 µM): 55.2% | Average of Relative viability of cells (%) ([11]; MDAMB-231, 25 µM): 43.7% | Average of Relative viability of cells (%) ([11]; MDAMB-231, 50 µM): 32.3% | Average of Relative viability of cells (%) ([11]; MDAMB-231, 100 µM): 24.8% | IC50 [12]: 20 ± 1.6 µM | Tub. enzyme inhibition assay %inhibition ([6]; conc 0.01 (unit not given)): 5.97% | Tub. enzyme inhibition assay K. Activity ([6]; conc 0.01 (unit not given)): 112.84 | Tub. enzyme inhibition assay %inhibition ([6]; conc 0.1 (unit not given)): 16.8% | Tub. enzyme inhibition assay K. Activity ([6]; conc 0.1 (unit not given)): 99.836 | Tub. enzyme inhibition assay %inhibition ([6]; conc 1 (unit not given)): 30% | Tub. enzyme inhibition assay K. Activity ([6]; conc 1 (unit not given)): 84.045 | Tub. enzyme inhibition assay %inhibition ([6]; conc 10 (unit not given)): 58% | Tub. enzyme inhibition assay K. Activity ([6]; conc 10 (unit not given)): 50.371 | Tub. enzyme inhibition assay %inhibition ([6]; conc 100 (unit not given)): 81.2% | Tub. enzyme inhibition assay K. Activity ([6]; conc 100 (unit not given)): 22.611 | IC50 [6]: 7.92 ± 0.29 µM | Tub. (IC50) IC50±SD [6]: 4.039 ± 0.15 µg/mL | Average of Relative viability of cells (%) ([7]; PC-3, 1.56 µM): 100% | Average of Relative viability of cells (%) ([7]; PC-3, 3.125 µM): 98.5% | Average of Relative viability of cells (%) ([7]; PC-3, 6.25 µM): 84.1% | Average of Relative viability of cells (%) ([7]; PC-3, 12.5 µM): 70.2% | Average of Relative viability of cells (%) ([7]; PC-3, 25 µM): 57.4% | Average of Relative viability of cells (%) ([7]; PC-3, 50 µM): 46.7% | Average of Relative viability of cells (%) ([7]; PC-3, 100 µM): 36.8% | IC50 [7]: 43 ± 2.5 µM | viability at 96 h, 50 µM [8]: 87% | Average of Relative viability of cells (%) ([9]; MCF-7, 1.56 µM): 100% | Average of Relative viability of cells (%) ([9]; MCF-7, 3.125 µM): 91.6% | Average of Relative viability of cells (%) ([9]; MCF-7, 6.25 µM): 72.7% | Average of Relative viability of cells (%) ([9]; MCF-7, 12.5 µM): 53.5% | Average of Relative viability of cells (%) ([9]; MCF-7, 25 µM): 37.2% | Average of Relative viability of cells (%) ([9]; MCF-7, 50 µM): 28.4% | Average of Relative viability of cells (%) ([9]; MCF-7, 100 µM): 22.3% | IC50 [9]: 18 ± 1.4 µM

Cc1nc(SCC(=O)Nc2nc(-c3ccc(Cl)cc3)cs2)sc1C(=O)/C=C/c1ccccc1 [Compound 10f, (E)-N-(4-(4-chlorophenyl)thiazol-2-yl)-2-((5-cinnamoyl-4-methylthiazol-2-yl)thio) acetamide]
Average of Relative viability of cells (%) ([5]; HCT-116, 1.56 µM): 100% | Average of Relative viability of cells (%) ([5]; HCT-116, 3.125 µM): 90.2% | Average of Relative viability of cells (%) ([5]; HCT-116, 6.25 µM): 71.1% | Average of Relative viability of cells (%) ([5]; HCT-116, 12.5 µM): 63.4% | Average of Relative viability of cells (%) ([5]; HCT-116, 25 µM): 50.5% | Average of Relative viability of cells (%) ([5]; HCT-116, 50 µM): 35.7% | Average of Relative viability of cells (%) ([5]; HCT-116, 100 µM): 23.6% | IC50 [5]: 25 ± 1.8 µM | Reduced potency compared to doxorubicin (GI50) [10]: at least 2.5 fold | Reduced potency compared to sorafenib (GI50) [10]: ≥ 1.5 fold | IC50 [10]: 18 µM | Average of Relative viability of cells (%) ([11]; MDAMB-231, 1.56 µM): 96.1% | Average of Relative viability of cells (%) ([11]; MDAMB-231, 3.125 µM): 79.5% | Average of Relative viability of cells (%) ([11]; MDAMB-231, 6.25 µM): 63.2% | Average of Relative viability of cells (%) ([11]; MDAMB-231, 12.5 µM): 38.7% | Average of Relative viability of cells (%) ([11]; MDAMB-231, 25 µM): 27.4% | Average of Relative viability of cells (%) ([11]; MDAMB-231, 50 µM): 17.8% | Average of Relative viability of cells (%) ([11]; MDAMB-231, 100 µM): 14.3% | IC50 [12]: 10 ± 0.9 µM | Tub. enzyme inhibition assay %inhibition ([6]; conc 0.01 (unit not given)): 5.23% | Tub. enzyme inhibition assay K. Activity ([6]; conc 0.01 (unit not given)): 113.72 | Tub. enzyme inhibition assay %inhibition ([6]; conc 0.1 (unit not given)): 15.6% | Tub. enzyme inhibition assay K. Activity ([6]; conc 0.1 (unit not given)): 101.33 | Tub. enzyme inhibition assay %inhibition ([6]; conc 1 (unit not given)): 34.8% | Tub. enzyme inhibition assay K. Activity ([6]; conc 1 (unit not given)): 78.182 | Tub. enzyme inhibition assay %inhibition ([6]; conc 10 (unit not given)): 58.9% | Tub. enzyme inhibition assay K. Activity ([6]; conc 10 (unit not given)): 49.376 | Tub. enzyme inhibition assay %inhibition ([6]; conc 100 (unit not given)): 87.6% | Tub. enzyme inhibition assay K. Activity ([6]; conc 100 (unit not given)): 14.884 | IC50 [6]: 5.62 ± 0.17 µM | Tub. (IC50) IC50±SD [6]: 2.88 ± 0.09 µg/mL | Average of Relative viability of cells (%) ([7]; PC-3, 1.56 µM): 100% | Average of Relative viability of cells (%) ([7]; PC-3, 3.125 µM): 91.8% | Average of Relative viability of cells (%) ([7]; PC-3, 6.25 µM): 70.5% | Average of Relative viability of cells (%) ([7]; PC-3, 12.5 µM): 58.2% | Average of Relative viability of cells (%) ([7]; PC-3, 25 µM): 46.7% | Average of Relative viability of cells (%) ([7]; PC-3, 50 µM): 32.3% | Average of Relative viability of cells (%) ([7]; PC-3, 100 µM): 24.2% | IC50 [7]: 22 ± 1.6 µM | viability at 96 h, 50 µM [8]: 86% | Average of Relative viability of cells (%) ([9]; MCF-7, 1.56 µM): 100% | Average of Relative viability of cells (%) ([9]; MCF-7, 3.125 µM): 84.7% | Average of Relative viability of cells (%) ([9]; MCF-7, 6.25 µM): 68.3% | Average of Relative viability of cells (%) ([9]; MCF-7, 12.5 µM): 41.9% | Average of Relative viability of cells (%) ([9]; MCF-7, 25 µM): 33.5% | Average of Relative viability of cells (%) ([9]; MCF-7, 50 µM): 27.4% | Average of Relative viability of cells (%) ([9]; MCF-7, 100 µM): 19.2% | IC50 [9]: 14 ± 1.1 µM
